Reference: US20240368131A1, “OXOINDOLINYL AMIDE DERIVATIVES FOR INHIBITING NLRP3 AND USES THEREOF” (VENTUS THERAPEUTICS U.S. INC., priority 2022, published 2024)
pIC50: −log10 of the molar value.

Legend:
human NLRP3 [1] = biological target: T1, human NLRP3 (Homo sapiens, UniProt Q96P20); test: Human Whole Blood (hWB) NLRP3 Assay (IL-1β MSD); type: cell-based; conditions: LPS 1 μg/ml 4.5 h, ATP 30 min, class symbols
Description: Human whole blood was drawn from healthy volunteers after obtaining written informed consent. Heparin lithium coated tubes were used to collect blood from volunteers. Blood samples were distributed on 96 well plates using 90 μl per well. Priming was performed by adding 5 μl of LPS (O26:B6; Sigma L-2654) at a final concentration of 1 μg/ml for 4.5 hours in a humidified incubator with 37° C., 5% CO2. Thirty minutes prior to NLRP3 activation, 5 μl of a 20× compound solution or vehicle (2% DMSO) was added to each well and plates were incubated on a shaker (450 rpm) in a humidified incubator with 37° C., 5% CO2. Activation was then performed by adding 3.3 μl of a 31× ATP solution per well. At the end of the 30 minutes stimulation, the plates were centrifuged (800 g, 10 min, room temperature) and the plasma from each well was frozen at −80° C. IL-1β levels in the supernatant were analyzed using a mesoscale discovery assay (MSD K151TUK) according to the manufacturers' instructions.
hWB IL-1β Assay: A represents an IC50 value <0.3 μM; B represents an IC50 value ≥0.3 μM and <0.5 μM; C represents an IC50 value ≥0.5 μM and <1.0 μM; D represents an IC50 value >1.0 μM.

human NLRP3 [2] = biological target: T1, human NLRP3; test: Human PBMC NLRP3 Assay (IL-1β release); type: cell-based; design: Human PBMCs (Normal): iXCells Cat #10HU-003; host or cells: human PBMCs (normal donors), LPS-primed, nigericin-stimulated; conditions: human PBMCs
Description: Reagents: Human PBMCs (Normal): iXCells Cat #10HU-003; RPMI 1640 medium (ATCC modification): ThermoFisher Cat #A1049101 (Complete Media: 10% FBS, 1% Pen/Strep; Assay Media: 1% Pen/Strep; 75 cm^2 cell culture flask: Corning Cat #430641U; 96-well cell culture plates: VWR Cat #10062-900; LPS (E. coli 026:B6): Sigma Cat #L2654, stock 5 mg/mL in PBS; Nigericin sodium salt: Sigma Cat #N7143, stock 5 mg/mL (6.7 mM) in ethanol.
Cryopreserved PBMCs (10×10^6 cells/vial) were rapidly thawed in a 37° C. water bath for 2 min and transferred in 10 mL Complete Media. Cells were then centrifuged at 1200 RPM for 5 min, resuspended in 40 mL of Complete Media, transferred in a 75 cm^2 cell culture flask and incubated overnight at 37° C. with 5% CO2. The next day, PBMCs were centrifuged, resuspended in 30 mL Assay Media (˜3.3×10^5 cells/mL) and distributed at 100 μL/well in a 96-well cell culture plate. 50 μl of Assay Media containing 300 ng/ml of LPS was then added to each well except for the untreated control wells (50 μl Assay Media without LPS). Cells were then primed with LPS for 4 h at 37° C. with 5% CO2. A concentration response curve (CRC) was prepared of 500× test compound in 100% dimethyl sulfoxide (DMSO). The CRC was then diluted 1:25 in Assay Media and then further diluted 1:5 in Assay Media resulting in a final 4× CRC in 0.8% DMSO/Assay Media. 50 μL/well of 4× test compound CRC or vehicle (0.8% DMSO/Assay Media) was then transferred into each well and subsequently incubated for 30 min at 37° C. with 5% CO2. Cells were stimulated by adding 4 μL of 500 μM Nigericin, for 1 h at 37° C. with 5% CO2 Plates were then centrifuged at 1200 RPM for 5 min and 100 μl of the media was transferred to a clean 96-well storage plate and stored at −80° C. until analyzed. Cytokine measurements were performed using the mesoscale platform. Compounds were added 30 minutes before priming the cells with LPS when TNFα was required to be quantified in the cytokine panel to confirm selectivity.
Human PBMC NLRP3 Assay: A represents an IC50 value <0.3 μM; B represents an IC50 value ≥0.3 μM and <0.5 μM; C represents an IC50 value ≥0.5 μM and <1.0 μM; D represents an IC50 value >1.0 μM and <10 μM; E represents an IC50 value >10 μM.

[3] = LPS priming 4 h, nigericin stimulation 1 h, class symbols
[4] = LPS priming, nigericin stimulation, numeric values of Tables C1-C4

T1 sequence (Q96P20 whole entry): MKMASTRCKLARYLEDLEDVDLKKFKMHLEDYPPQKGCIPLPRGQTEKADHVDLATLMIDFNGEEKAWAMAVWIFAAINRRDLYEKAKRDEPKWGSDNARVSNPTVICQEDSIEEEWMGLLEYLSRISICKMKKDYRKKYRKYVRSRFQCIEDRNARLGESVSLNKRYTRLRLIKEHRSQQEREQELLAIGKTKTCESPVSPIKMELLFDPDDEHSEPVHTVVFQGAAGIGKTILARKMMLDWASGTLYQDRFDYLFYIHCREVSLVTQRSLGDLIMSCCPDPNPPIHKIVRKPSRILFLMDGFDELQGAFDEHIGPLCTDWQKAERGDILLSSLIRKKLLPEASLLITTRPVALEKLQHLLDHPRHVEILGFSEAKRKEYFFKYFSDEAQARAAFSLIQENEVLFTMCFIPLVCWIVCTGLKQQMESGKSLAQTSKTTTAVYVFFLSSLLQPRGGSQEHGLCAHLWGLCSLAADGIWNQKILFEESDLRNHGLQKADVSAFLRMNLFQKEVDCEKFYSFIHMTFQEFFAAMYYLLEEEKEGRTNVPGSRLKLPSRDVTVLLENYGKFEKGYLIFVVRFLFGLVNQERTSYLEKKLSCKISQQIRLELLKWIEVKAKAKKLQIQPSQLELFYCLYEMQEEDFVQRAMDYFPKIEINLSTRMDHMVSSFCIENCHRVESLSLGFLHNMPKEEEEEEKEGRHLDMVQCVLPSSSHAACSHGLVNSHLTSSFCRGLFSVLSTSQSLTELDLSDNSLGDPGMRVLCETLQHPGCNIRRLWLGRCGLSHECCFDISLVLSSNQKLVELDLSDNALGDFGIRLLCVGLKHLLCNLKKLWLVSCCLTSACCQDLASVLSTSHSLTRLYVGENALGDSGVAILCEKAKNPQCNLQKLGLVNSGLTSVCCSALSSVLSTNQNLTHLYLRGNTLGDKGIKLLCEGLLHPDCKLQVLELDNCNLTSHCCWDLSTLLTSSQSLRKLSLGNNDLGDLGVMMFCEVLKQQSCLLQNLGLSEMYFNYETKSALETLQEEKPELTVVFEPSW

Row | pIC50 (human NLRP3 [1]) | pIC50 (human NLRP3 [2]; [3]) | pIC50 (human NLRP3 [2]; [4]) | SMILES
1 | 6.30 to 6.52 | – | – | CC1(C)C(=O)N(CC(=O)NCCCC(=O)O)c2c(O)cc(Cl)cc21 [Compound 47, 4-(2-(5-chloro-7-hydroxy-3,3-dimethyl-2-oxoindolin-1-yl)acetamido)butanoic acid]
2 | > 6.52 | > 6.52 | – | CC1(C)C(=O)N(CC(=O)NCCCC(=O)O)c2ccc(I)cc21 [Compound 22, 4-(2-(5-iodo-3,3-dimethyl-2-oxoindolin-1-yl)acetamido)butanoic acid]
3 | > 6.52 | > 6.52 | – | CC1(C)C(=O)N(CC(=O)NCCCC(=O)O)c2ccc(Br)c(F)c21 [Compound 21, 4-(2-(5-bromo-4-fluoro-3,3-dimethyl-2-oxoindolin-1-yl)acetamido)butanoic acid]
4 | < 6.00 | > 6.52 | – | CC1(C)C(=O)N(CC(=O)NCCCC(=O)O)c2c(O)cc(I)cc21 [Compound 28, 4-(2-(7-hydroxy-5-iodo-3,3-dimethyl-2-oxoindolin-1-yl)acetamido)butanoic acid]
5 | < 6.00 | – | – | CC(C)(CCc1nnn[nH]1)NC(=O)CN1C(=O)C(C)(C)c2cc(Br)cc(O)c21 [Compound 32, 2-(5-bromo-7-hydroxy-3,3-dimethyl-2-oxoindolin-1-yl)-N-(2-methyl-4-(1H-tetrazol-5-yl)butan-2-yl)acetamide]
6 | 6.00 to 6.30 | > 6.52 | – | CC(C)(CCC(=O)O)NC(=O)CN1C(=O)C(C)(C)c2cc(Br)cc(O)c21 [Compound 31, 4-(2-(5-bromo-7-hydroxy-3,3-dimethyl-2-oxoindolin-1-yl)acetamido)-4-methylpentanoic acid]
7 | < 6.00 | > 6.52 | – | CC1(C)C(=O)N(CC(=O)NCC2(CC(=O)O)CC2)c2c(O)cc(Br)cc21 [Compound 35, 2-(1-((2-(5-bromo-7-hydroxy-3,3-dimethyl-2-oxoindolin-1-yl)acetamido)methyl)cyclopropyl)acetic acid]
8 | < 6.00 | > 6.52 | – | CN(CCCC(=O)O)C(=O)CN1C(=O)C(C)(C)c2cc(Br)cc(O)c21 [Compound 30, 4-(2-(5-bromo-7-hydroxy-3,3-dimethyl-2-oxoindolin-1-yl)-N-methylacetamido)butanoic acid]
9 | – | > 6.52 | – | C[C@@H](CNC(=O)CN1C(=O)C(C)(C)c2cc(Br)cc(O)c21)CC(=O)O (single isomer, unassigned) [42A*]
10 | – | > 6.52 | – | CC1(C)C(=O)N(CC(=O)NC2(CCC(=O)O)CC2)c2c(O)cc(Br)cc21 [Compound 44, 3-(1-(2-(5-bromo-7-hydroxy-3,3-dimethyl-2-oxoindolin-1-yl)acetamido)cyclopropyl)propanoic acid]
11 | < 6.00 | > 6.52 | – | CC1(C)C(=O)N(CC(=O)NCCCc2nnn[nH]2)c2c(O)cc(Br)cc21 [Compound 33, N-(3-(1H-tetrazol-5-yl)propyl)-2-(5-bromo-7-hydroxy-3,3-dimethyl-2-oxoindolin-1-yl)acetamide]
12 | – | < 5.00 | – | COc1cc(Br)cc2c1N(CC(=O)NCCCC(=O)O)C(=O)C2(C)C [Compound 27, 4-(2-(5-bromo-7-methoxy-3,3-dimethyl-2-oxoindolin-1-yl)acetamido)butanoic acid]
13 | – | > 6.52 | – | C[C@H](CNC(=O)CN1C(=O)C(C)(C)c2cc(Br)cc(O)c21)CC(=O)O (single isomer, unassigned) [42B*]
14 | – | < 5.00 | – | CC1(C)C(=O)N(CC(=O)NCCCC(=O)O)c2c(C(F)(F)F)cc(Br)cc21 [Compound 50, 4-(2-(5-bromo-3,3-dimethyl-2-oxo-7-(trifluoromethyl)indolin-1-yl)acetamido)butanoic acid]
15 | – | 5.00 to 6.00 | – | CC1(C)C(=O)N(CC(=O)NCCCC(=O)O)c2cc(F)c(Br)cc21 [Compound 20, 4-(2-(5-bromo-6-fluoro-3,3-dimethyl-2-oxoindolin-1-yl)acetamido)butanoic acid]
16 | < 6.00 | – | – | CC1(C)C(=O)N(CC(=O)NCCCc2nnn[nH]2)c2c(O)cc(C3CC3)cc21 [Compound 29, N-(3-(1H-tetrazol-5-yl)propyl)-2-(5-cyclopropyl-7-hydroxy-3,3-dimethyl-2-oxoindolin-1-yl)acetamide]
17 | < 6.00 | > 6.52 | – | C[C@@H](CCC(=O)O)NC(=O)CN1C(=O)C(C)(C)c2cc(Br)cc(O)c21 [Compound 41B, (S)-4-(2-(5-bromo-7-hydroxy-3,3-dimethyl-2-oxoindolin-1-yl)acetamido)pentanoic acid]

Further lines, the compound ahead of its results:

Row | SMILES | pIC50 (human NLRP3 [1]) | pIC50 (human NLRP3 [2]; [3]) | pIC50 (human NLRP3 [2]; [4])
18 | C[C@@H](CC(=O)O)[C@@H](C)NC(=O)CN1C(=O)C(C)(C)c2c1ccc(C1CC1)c2F (single isomer, unassigned) [Compound 58A*] | 6.00 to 6.30 | > 6.52 | –
19 | C[C@H](CC(=O)O)[C@@H](C)NC(=O)CN1C(=O)C(C)(C)c2c(F)c(C(F)(F)F)cc(F)c21 (single isomer, unassigned) [67D*] | 6.30 to 6.52 | – | –
20 | C[C@H](NC(=O)CN1C(=O)C(C)(C)c2c(F)c(C(F)(F)F)cc(F)c21)[C@@H](C)CC(=O)O (single isomer, unassigned) [67C*] | < 6.00 | – | –
21 | CC(C)(CCC(=O)O)NC(=O)CN1C(=O)C(C)(C)c2cc(C3CC3)ccc21 [Compound 9, 4-(2-(5-cyclopropyl-3,3-dimethyl-2-oxoindolin-1-yl)acetamido)-4-methylpentanoic acid] | – | 6.00 to 6.30 | 6.17
22 | CC1(C)C(=O)N(CC(=O)NCCCC(=O)O)c2ccc(C3CCCC3)cc21 [Compound 25, 4-(2-(5-cyclopentyl-3,3-dimethyl-2-oxoindolin-1-yl)acetamido)butanoic acid] | – | < 5.00 | –
23 | C[C@H](CNC(=O)CN1C(=O)C(C)(C)c2c(F)c(C3CC3)cc(F)c21)CC(=O)O [Compound 61B, (S)-4-(2-(5-cyclopropyl-4,7-difluoro-3,3-dimethyl-2-oxoindolin-1-yl)acetamido)-3-methylbutanoic acid] | 6.00 to 6.30 | – | –
24 | CC(C)(CNC(=O)CN1C(=O)C(C)(C)c2cc(Br)ccc21)CC(=O)O [Compound 13, 4-(2-(5-bromo-3,3-dimethyl-2-oxoindolin-1-yl)acetamido)-3,3-dimethylbutanoic acid] | – | > 6.52 | 6.96
25 | CC1(C)C(=O)N(CC(=O)N[C@@H]2CCC[C@@H]2C(=O)O)c2ccc(Br)cc21 (single isomer, unassigned) [52A*] | – | < 5.00 | –
26 | O=C(O)CCCNC(=O)Cn1ccc2cc(Br)ccc21 [COMPARATIVE EXAMPLE 2, 4-(2-(5-bromo-1H-indol-1-yl)acetamido)butanoic acid, reference compound] | – | – | 5.14
27 | CC1(C)C(=O)N(CC(=O)NCCCC(=O)O)c2ccc(Cl)cc21 [Compound 4, 4-(2-(5-chloro-3,3-dimethyl-2-oxoindolin-1-yl)acetamido)butanoic acid] | < 6.00 | – | –
28 | CC1(C)C(=O)N(CC(=O)NC2(CCC(=O)O)CCOC2)c2ccc(Br)cc21 (racemic) [Rac-3, 3-(3-(2-(5-bromo-3,3-dimethyl-2-oxoindolin-1-yl)acetamido)tetrahydrofuran-3-yl)propanoic acid] | 6.00 to 6.30 | > 6.52 | –
29 | O=C(O)CCCNC(=O)Cn1ccc2ccccc21 [COMPARATIVE EXAMPLE 1, 4-(2-(1H-indol-1-yl)acetamido)butanoic acid, reference compound] | – | – | < 4.00
